The results in this text go back to ChEMBL document CHEMBL3045958, “The design and synthesis of inhibitors of adenosine 5'-monophosphate deaminase” (Bioorg Med Chem Lett, 1999).

The source made the active and inactive calls. The calls are words filed in the database; no cut-off is given here.

For assay [1], the target named is T1, AMP deaminase 1 (Oryctolagus cuniculus, UniProt P81072).
T1 sequence (P81072 whole entry): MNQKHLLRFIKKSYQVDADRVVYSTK
Put plainly: Inhibition of Oryctolagus cuniculus (rabbit) muscle adenylate deaminase. Further details: species or system Muscle tissue.

Assay [2] in a line: Inhibition of adenylate deaminase.
Assay [3] has as its target T2, Adenosine deaminase (Bos taurus, UniProt P56658).
T2 sequence (P56658 whole entry): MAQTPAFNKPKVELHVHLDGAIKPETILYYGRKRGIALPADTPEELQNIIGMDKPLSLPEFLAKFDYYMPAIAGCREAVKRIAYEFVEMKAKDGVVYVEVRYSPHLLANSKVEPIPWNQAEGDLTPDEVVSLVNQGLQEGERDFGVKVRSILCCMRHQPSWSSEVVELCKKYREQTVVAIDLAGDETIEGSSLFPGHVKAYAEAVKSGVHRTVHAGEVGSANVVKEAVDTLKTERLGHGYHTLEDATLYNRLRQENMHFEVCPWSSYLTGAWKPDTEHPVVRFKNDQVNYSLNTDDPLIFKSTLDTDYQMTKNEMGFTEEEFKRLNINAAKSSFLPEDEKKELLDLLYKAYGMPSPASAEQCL
Put plainly: Inhibition of Bos taurus (calf) […].

For assay [4], the system named is Pisum sativum. As to the kind of experiment: Increase in ATP levels in Pisum sativum (pea) seedlings at 100 uM measured per gram of frozen weight after 24 hr by luciferase based assay (reference value: 213 to 226 nmol/g of frozen weight). The assay is classed as functional, Lathyrus oleraceus.
Assay [5] concerns Pisum sativum. As to the kind of experiment: Increase in ATP levels in Pisum sativum (pea) seedlings at 100 uM measured per gram of frozen weight after 4 hr by luciferase based assay (reference value: 253 to 267 nmol/g of frozen weight). It is filed as functional, Lathyrus oleraceus.

The compound `O=P(O)(O)OC[C@H]1O[C@@H](c2n[nH]c3cncnc23)[C@H](O)[C@@H]1O` registered an IC50 in assay [1] of 0.07 µM.
`O=P(O)(O)OC[C@H]1O[C@@H](n2cnc3cncnc32)[C@H](O)[C@@H]1O` showed a Ki in assay [1] of 6.5 µM.
For the compound `O=P(O)(O)OC[C@H]1C[C@@H](n2cnc3cncnc32)[C@H](O)[C@@H]1O`, in assay [2], the inhibition entry is “inactive”.
On the same count and under the same terms, with `OC[C@H]1C[C@@H](n2cnc3cncnc32)[C@H](O)[C@@H]1O` the entry was “inactive”.
In assay [3], `OC[C@H]1O[C@@H](c2n[nH]c3cncnc23)[C@H](O)[C@@H]1O` [DEAMINOFORMYCIN] had an IC50 of 5 µM. The inhibition entry in assay [2] is “inactive”. Besides, the Activity was found to be 693 nmol in assay [4] and 423 nmol in assay [5].
